In patent US9884851B2, “Heterocycle-bisamide inhibitors of scavenger receptor BI” (THE BROAD INSTITUTE, INC., priority 2012, dated 2018):
Where a chain is given by its changes, count along the chain named. Entries after “also recorded” stand apart in the source; their conditions may differ.

Experiments:
ldlA[mSR-BI] cells = assay: Cell cytotoxicity assay (CellTiter-Glo); settings: ldlA[mSR-BI] cells
Experimental: It is possible that a compound will cause cells to decrease HDL-mediated DiI uptake due to nonspecific consequences of cellular toxicity, representing a second class of false positive hits. The cells were treated with compounds for 3 hours or 24 hours, and then cell viability was measured using the CellTiter-Glo Assay (Promega), a luciferase-based reagent that measures cellular ATP levels. The compounds were tested at different concentrations to determine IC50 values. […] Data were normalized against DMSO and the positive control (1 μM BLT-1) in Genedata Assay Analyzer.
All available dry powder samples of the remaining, non-quenching compounds were procured from commercial sources and purities were determined. The compounds obtained were then retested in the primary assay and in cytotoxicity assays. We wanted to rule out any compounds that were cytotoxic, especially in the 3-hour time span of the primary DiI-HDL uptake assay. Therefore, compounds were tested in ldl[mSR-BI] cells for cytotoxicity at 3 hours and 24 hours using the CellTiter-Glo assay (Promega) that measures cellular ATP as a marker of cell viability. […] Compounds were screened for inhibition of endocytosis using labeled transferrin, which is known to bind the transferrin receptor, enter cells by clathrin-mediated endocytosis, and move to endosomes before being recycled to the cell surface.

SR-BI = biological target: T1, SR-BI (Mus musculus, UniProt Q61009); assay: DiI-HDL uptake assay with washout; assay type: cell-based, murine; design: expressed in transfected cells; host or cells: ldlA[mSR-BI], Chinese hamster ovary (CHO) cells lacking LDL receptor (Krieger Laboratory); settings: compound pretreatment, wash, DiI-HDL without compound
T1 sequence (Q61009 1-509): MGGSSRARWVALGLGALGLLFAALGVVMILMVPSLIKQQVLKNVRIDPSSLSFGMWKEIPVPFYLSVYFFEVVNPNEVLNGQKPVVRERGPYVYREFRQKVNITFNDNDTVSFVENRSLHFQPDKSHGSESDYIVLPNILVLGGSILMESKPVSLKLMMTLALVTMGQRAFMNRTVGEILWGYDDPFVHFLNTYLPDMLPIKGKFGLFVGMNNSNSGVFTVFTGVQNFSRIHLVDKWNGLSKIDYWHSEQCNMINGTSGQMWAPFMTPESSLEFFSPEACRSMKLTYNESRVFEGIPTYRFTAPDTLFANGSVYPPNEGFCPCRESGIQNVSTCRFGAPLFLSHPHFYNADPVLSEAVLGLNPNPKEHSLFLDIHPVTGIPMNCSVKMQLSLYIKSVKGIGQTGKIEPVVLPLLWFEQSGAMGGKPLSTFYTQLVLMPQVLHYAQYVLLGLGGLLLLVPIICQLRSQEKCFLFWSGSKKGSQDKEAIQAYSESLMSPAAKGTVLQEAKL
Experimental: DiI-HDL Uptake Assay with Washout (SA 5: AID No. 588831)
This is a modification of the primary assay where cells are pretreated with compound but no compound is present during the DiI-HDL treatment period. ldlA[mSR-BI] cells were plated into 384-well plates at 30 μl per well and incubated overnight. Cells were treated with compound for 3 hours, then media were removed and the cells were washed with PBS before fresh lipoprotein-free media (Ham's F12/0.5% fatty acid-free Bovine Serum Albumin [BSA]/25 mM HEPES pH 7.4) was added with 10 μg protein/ml DiI-HDL. Cells took up the DiI via SR-BI over 3 hours in the absence of compound. After significant uptake of the DiI, the cells became fluorescent. The level of fluorescence correlates with the amount of DiI uptake and can be measured with a standard plate reader. The uptake of lipid (represented by DiI) was inhibited by the compound BLT-1.

[1] = biological target: T2, murine SR-BI with the C384S mutation (Mus musculus, UniProt Q61009, C384S); assay: Mutant SR-BI cholesterol efflux assay; assay type: cell-based; settings: Cys384 converted to serine
T2 construct: expressed in transfected cells; host or cells: CHO cell line lacking LDL receptors, overexpressing C384S SR-BI
T2 sequence (Q61009 1-509 C384S): T1 sequence (Q61009 1-509) with C384S
Experimental: Mutant SR-BI Cholesterol Efflux Assay (SA 10: AID Nos. 588843, 602138)
BLT-1 is known to interact at cysteine 384 of SR-BI (16). […] This assay is used to determine if the compounds work in a similar fashion to BLT-1 and require Cys384 to alter the efflux of FC to HDL.
On Day 0, 50,000 cells expressing murine SR-BI with the C384S mutation per well were plated in 24-well plates. On the following day, the media was removed and [^3H]cholesterol in lipoprotein-deficient media was added. On Day 1, the medium was replaced with Ham's F12 medium supplemented with 10% bovine lipoprotein deficient serum, 1 μCi/ml [1,2-^3H]cholesterol (40-60 Ci/mmol). On Day 3, the cells were washed to remove serum and incubated in Ham's F12 plus 1% fatty acid-free BSA. On Day 4, the cells were washed and pretreated with compounds for 1 hour. Subsequently, the cells were incubated for an additional 2 hours with the same concentrations of small molecules and with unlabeled HDL (final HDL concentration of 100 μg protein/ml). […] The amount of [^3H]cholesterol in the medium and within cells was determined using liquid scintillation counting. Total cellular [^3H]cholesterol was calculated as the sum of the radioactivity in the efflux medium plus the radioactivity in the cells and was used to calculate the [^3H]cholesterol efflux (percent of total [^3H]cholesterol released into the medium).

Structure (SMILES)	cytotoxicity (in words) (ldlA[mSR-BI] cells)	reversibility of inhibition / activity after washout (in words) (SR-BI)	efflux of cholesterol in C384S mutant background (in words) [1]	reversibility of inhibition / activity after washout (in words) (SR-BI; listed as compound of Formula (II))
CCCCCCC1CCCC1=NNC(N)=S (stereo not shown) [BLT-1, reference compound]	extremely toxic to cells	nonreversible covalent modifier of SR-BI	cannot reduce uptake of HDL or efflux of cholesterol	
C[C@H](C(=O)NC1CCCC1)N(C(=O)Cn1nnc(-c2ccc3c(c2)OCO3)n1)C1CCCCC1 [ML279, (R)-2-(2-(5-(Benzo[d][1,3]dioxol-5-yl)-2H-tetrazol-2-yl)-N-cyclohexylacetamido)-N-cyclopentylpropanamide]	not cytotoxic; also recorded: no cytotoxicity at 24 hours	reversible binder of SR-BI; also recorded: greatly attenuated; also recorded: reversible inhibitor of HDL uptake; also recorded: showed no inhibition	can reduce uptake and efflux in the mutant background	reversible inhibitor
